Article PMC12040169 (PLOS Biology, 2025)

Experiment: in vitro
Details: human, hela cells, % viability

**Q.** For CC(C)(CC(=O)Nc1sc2c(c1C(=O)O)CCC2)CC(=O)Nc1sc2c(c1C(=O)O)CCC2 [CBK296100], which viability at 28.5 h, 10 µM is on record?
**A.** Its viability at 28.5 h, 10 µM is 92.3%.

**Q.** Which viability at 28.5 h, 10 µM does the source give for O=C(NC(Cc1cccs1)c1nccs1)C1CCOC1 (centres unmarked) [CBK285054] here?
**A.** The viability at 28.5 h, 10 µM was 80.6%.

**Q.** With O=C(CN1C(=O)N2CCN=C2c2ccccc21)NC1CCCC1 [CBK283959] as the molecule, how does the viability at 28.5 h, 10 µM read?
**A.** The viability at 28.5 h, 10 µM was 100%.

**Q.** For CC(C)N(C(=O)Cn1c(-c2ccco2)cc2cccnc21)C(C)C [CBK282682], which viability at 28.5 h, 10 µM is on record?
**A.** The viability at 28.5 h, 10 µM was 99.4%.

**Q.** With O=C(O)c1ccc(NC2=NS(=O)(=O)c3ccccc32)cc1 [CBK287084] as the molecule, how does the viability at 28.5 h, 10 µM read?
**A.** Its viability at 28.5 h, 10 µM is 84.4%.

**Q.** For O=CNCCCc1nc2ccccc2n1CCc1ccccc1 [CBK269393], which viability at 28.5 h, 10 µM is on record?
**A.** Its viability at 28.5 h, 10 µM is 89.5%.

**Q.** Which viability at 28.5 h, 10 µM does the source give for O=C(Nc1ccc(O)c(C(=O)O)c1)c1ccc2c(c1)C(=O)N(CC1CCCO1)C2=O (centres unmarked) [CBK268280] here?
**A.** The viability at 28.5 h, 10 µM was 101%.

**Q.** For COc1cc(-c2ccc3ccc(N)nc3n2)cc(OC)c1OC [CBK061866], which viability at 28.5 h, 10 µM is on record?
**A.** Its viability at 28.5 h, 10 µM is 90.6%.

**Q.** Which viability at 28.5 h, 10 µM does the source give for CSc1ncc(Cl)c(C(=O)NCCc2ccc(S(N)(=O)=O)cc2)n1 [CBK268679] here?
**A.** Its viability at 28.5 h, 10 µM is 104%.

**Q.** Which viability at 28.5 h, 10 µM does the source give for CCOC(=O)N1CCC(Nc2nc3ccccc3nc2OCc2cc(C)on2)CC1 [CBK171825] here?
**A.** The viability at 28.5 h, 10 µM was 89.2%.

**Q.** With CC(=O)c1sc(NC(=O)c2ccccc2)nc1-c1ccccc1 [CBK287315] as the molecule, how does the viability at 28.5 h, 10 µM read?
**A.** Its viability at 28.5 h, 10 µM is 87.8%.

**Q.** Which viability at 28.5 h, 10 µM does the source give for O=C(NCCCn1ccnc1)c1cc(-c2cccc(Br)c2)nc2ccccc12 [CBK265476] here?
**A.** Its viability at 28.5 h, 10 µM is 91.4%.

**Q.** For CCOc1ccc(C(=O)Nc2ccc(-c3nc4ccccc4s3)cc2C)cc1[N+](=O)[O-] [CBK269005], which viability at 28.5 h, 10 µM is on record?
**A.** The viability at 28.5 h, 10 µM was 90.5%.

**Q.** Which viability at 28.5 h, 10 µM does the source give for Cc1nc(Oc2ccccc2)c2c3c(sc2n1)CCCC3 [CBK131919] here?
**A.** Its viability at 28.5 h, 10 µM is 101%.

**Q.** With CN(C)CCCC(=O)Nc1ccc2c(ccn2Cc2ccccc2)c1 [CBK159740] as the molecule, how does the viability at 28.5 h, 10 µM read?
**A.** The viability at 28.5 h, 10 µM was 91.2%.

**Q.** Which viability at 28.5 h, 10 µM does the source give for Cc1cc(C)n(CCCC(=O)N2CC3(CCNCC3)CC2C(=O)O)n1 (centres unmarked) [CBK307174] here?
**A.** Its viability at 28.5 h, 10 µM is 89.5%.

**Q.** With CC(C)C(=O)Nc1cc2cccnc2nc1-c1ccccc1 [CBK073647] as the molecule, how does the viability at 28.5 h, 10 µM read?
**A.** Its viability at 28.5 h, 10 µM is 94.7%.

**Q.** With Cc1cc(NC(=O)c2ccc(S(=O)(=O)N(C)C)cc2)nc2c1c(=O)oc1ccccc12 [CBK291135] as the molecule, how does the viability at 28.5 h, 10 µM read?
**A.** The viability at 28.5 h, 10 µM was 104%.

**Q.** With NC(=O)C1(N2CCCCC2)CCN(C(=O)CSc2nnc(-c3ccccc3)n2C2CCCCC2)CC1 [CBK266219] as the molecule, how does the viability at 28.5 h, 10 µM read?
**A.** The viability at 28.5 h, 10 µM was 101%.

**Q.** For CCC(NS(=O)(=O)c1cc(-n2cccn2)ccc1OC)C1CC(O)C1 (centres unmarked) [CBK307103], which viability at 28.5 h, 10 µM is on record?
**A.** Its viability at 28.5 h, 10 µM is 106%.

**Q.** With Cc1ccc(-c2cncc(N3CCN(CCO)CC3)n2)cc1C [CBK065912] as the molecule, how does the viability at 28.5 h, 10 µM read?
**A.** The viability at 28.5 h, 10 µM was 102%.

**Q.** Which viability at 28.5 h, 10 µM does the source give for O=C(c1cccs1)N1CCC2(CC1)Nc1ccccc1-n1cccc12 [CBK283489] here?
**A.** The viability at 28.5 h, 10 µM was 99.3%.

**Q.** With COc1cccc(C(=O)Nc2ccc(Br)cc2C(=O)O)c1 [CBK022487] as the molecule, how does the viability at 28.5 h, 10 µM read?
**A.** Its viability at 28.5 h, 10 µM is 98.7%.

**Q.** Which viability at 28.5 h, 10 µM does the source give for Cc1cc(C)nc(NC(=O)c2c(Cl)cccc2Cl)n1 [CBK058401] here?
**A.** The viability at 28.5 h, 10 µM was 99.9%.

**Q.** With O=S(=O)(c1ccc(-c2csc(-c3ccccc3)n2)cc1)N1CCCCCC1 [CBK265504] as the molecule, how does the viability at 28.5 h, 10 µM read?
**A.** The viability at 28.5 h, 10 µM was 84.9%.

**Q.** Which viability at 28.5 h, 10 µM does the source give for Cc1nc(C(F)(F)F)ccc1C(=O)N(C)CCN1CCCCC1 [CBK281917] here?
**A.** Its viability at 28.5 h, 10 µM is 87.3%.

**Q.** With CCn1cc(-c2cncn2CCn2nc(C)c(Cl)c2C)cn1 [CBK281708] as the molecule, how does the viability at 28.5 h, 10 µM read?
**A.** The viability at 28.5 h, 10 µM was 87.9%.

**Q.** With CC(C)NC(=O)Cn1nnc(-c2cccc(C(F)(F)F)c2)n1 [CBK304275] as the molecule, how does the viability at 28.5 h, 10 µM read?
**A.** Its viability at 28.5 h, 10 µM is 95.2%.

**Q.** Which viability at 28.5 h, 10 µM does the source give for CC(C)c1nnc(C2(c3ccc(Br)cc3)CCOCC2)o1 [CBK306230] here?
**A.** The viability at 28.5 h, 10 µM was 86.4%.

**Q.** Which viability at 28.5 h, 10 µM does the source give for O=C(O)c1ccc(N2C(=O)CC(N3CCN(C/C=C/c4ccccc4)CC3)C2=O)cc1 (centres unmarked) [CBK261402] here?
**A.** Its viability at 28.5 h, 10 µM is 92.6%.

**Q.** For COc1ccccc1C(CNC(=O)Nc1cc(C)on1)N1CCCC1 (centres unmarked) [CBK304586], which viability at 28.5 h, 10 µM is on record?
**A.** Its viability at 28.5 h, 10 µM is 94.5%.

**Q.** Which viability at 28.5 h, 10 µM does the source give for CN(C)c1ccc(CC(=O)NC2Cc3ccccc3C2)cc1 [CBK200360] here?
**A.** Its viability at 28.5 h, 10 µM is 105%.

**Q.** For CC(=O)N[C@H](C)Cn1nnc2ccccc21 [CBK282246], which viability at 28.5 h, 10 µM is on record?
**A.** Its viability at 28.5 h, 10 µM is 88%.

**Q.** For COCc1cccc(-c2nccnc2Oc2cccc(OC)c2)c1 [CBK106958], which viability at 28.5 h, 10 µM is on record?
**A.** Its viability at 28.5 h, 10 µM is 90.6%.

**Q.** For Cc1cc(NS(=O)(=O)c2c(C)nn(C)c2Cl)n(C)n1 [CBK067245], which viability at 28.5 h, 10 µM is on record?
**A.** The viability at 28.5 h, 10 µM was 99.9%.

**Q.** With C=CCC1(CC=C)CCN1C(=O)c1cc(-c2ccccn2)n[nH]1 [CBK282448] as the molecule, how does the viability at 28.5 h, 10 µM read?
**A.** Its viability at 28.5 h, 10 µM is 106%.

**Q.** Which viability at 28.5 h, 10 µM does the source give for CCOC(=O)c1c(NC(=O)CCN2CCCCC2)sc2c1CCCCC2 [CBK265319G] here?
**A.** The viability at 28.5 h, 10 µM was 89.9%.

**Q.** Which viability at 28.5 h, 10 µM does the source give for COc1ccc(CNCc2cccc(OC)c2OC)cc1Br [CBK074479] here?
**A.** Its viability at 28.5 h, 10 µM is 113%.

**Q.** With CC(C)n1ccnc1CN1CCn2nc(CNc3cnccn3)cc2C1 [CBK306902] as the molecule, how does the viability at 28.5 h, 10 µM read?
**A.** Its viability at 28.5 h, 10 µM is 98.7%.

**Q.** For CC(=O)Nc1ccc(-c2cncc(N(C)CCN(C)C)n2)cc1 [CBK065694], which viability at 28.5 h, 10 µM is on record?
**A.** Its viability at 28.5 h, 10 µM is 97.8%.

**Q.** With O=C(O)c1ccc2c(c1)C1C=CCC1C(c1cccc([N+](=O)[O-])c1)N2 (centres unmarked) [CBK287008] as the molecule, how does the viability at 28.5 h, 10 µM read?
**A.** Its viability at 28.5 h, 10 µM is 94.7%.

**Q.** With O=C(NCCOc1ccccc1Cc1ccccc1)c1cncc(Br)c1 [CBK266581] as the molecule, how does the viability at 28.5 h, 10 µM read?
**A.** The viability at 28.5 h, 10 µM was 103%.

**Q.** With COc1ccc(CN2CCNC(=O)C2CC(=O)O)c(F)c1 (centres unmarked) [CBK270143] as the molecule, how does the viability at 28.5 h, 10 µM read?
**A.** The viability at 28.5 h, 10 µM was 95.6%.

**Q.** Which viability at 28.5 h, 10 µM does the source give for CC(C)[C@H]1CN(Cc2ccccc2F)CCN1C(=O)Cn1ncc2ccccc2c1=O [CBK286172] here?
**A.** Its viability at 28.5 h, 10 µM is 82.2%.
